Patent EP0415456A2, “Xanthine compounds” (priority 1989, dated 1991)
Like-named read-outs stand apart in the source and are kept apart here.

Experiments:
[1] = test system: zig-zag strips of the trachea; assay: effects on passive Schultz-Dale reaction (antigen-induced contraction of sensitized trachea strips); set-up: species or system guinea pigs; conditions: Cavia porcellus, read-out: Passive S-D Reaction IC₅₀
Experimental: After 24 hours, the guinea pigs were stunned and exsanguinated, and then trachea were removed. The zig-zag strips of the trachea were prepared by the method of Emmerson, et al. [J. Pharm. […] The strips were suspended in Krebs-Henseleit solution at 37°C […] Antigen (EWA) was then introduced in the solution (final concentration; 1μg/ml), and the contraction was measured by […] After the contraction reached stable plateau, the compounds were cumulatively added in order to get concentration-relaxation curves. […]

[2] = test system: glycerol-induced renal failure model; assay: renal-protecting effect (glycerol-induced renal failure model); format: in vivo; conditions: male Wistar rats; for suppression of increases of the serum creatinine and of urine-nitrogen: 0.01 - 10 mg/kg i.p., 24 hours after 50% glycerol s.c. (p < 0.05); for pathological examination of removed kidneys: state of kidneys: i.p., left kidney removed 24 hours after 50% glycerol s.c.
Experimental: A renal failure is a state wherein the renal function is lowered and the homeostasis of a body fluid can be no more maintained. It is known that an acute renal failure characteristic of uriniferous tubule disorder is caused by subcutaneous or intramuscular injection of glycerol to rats [Can. J. Physiol.
Male Wistar rats were kept deprived or water for 18 hours, and served for the test. A test compound was intraperitoneally administered to the rats (dosage: 1 mℓ/kg) and the rats were anesthetized with ether and 50% glycerol was subcutaneously administered (dosage: 0.8mℓ/100g) to the rats, pinching the dorsal skin. Twenty four hours after the administration of glycerol, the rats were anesthetized with ether and 5 mℓ of blood were collected from the abdominal aorta. The collected blood was allowed to stand for 30 minutes or longer and then centrifuged at 3,000 rpm for 10 minutes, and the amounts of the serum creatinine and urine-nitrogen (UN) contained in the serum were determined by auto analyzer (Olympus AU510) or measured by a creatinine test Wako (Jaffé method) and UN Test Wako (diacetylmonooxime direct method). Both are manufactured by Wako Pure Chemicals Co.
On the other hand, the left kidneys of the blood-sampled rats were removed and placed in formalin-filled vial bottles, and used as samples for the pathological examination.

[3] = test system: death induced by Platelet-Activating Factor (PAF); assay: effect of inhibiting death induced by Platelet-Activating Factor (PAF); format: in vivo; conditions: Mus musculus; oral, dd strain mice, 40 µg/kg PAF i.v. 1 hour after administration; highest dose 100 mg/kg; read-out: MED (mg/kg) for Inhibiting Death Induced by PAF
Experimental: A test compound (100 mg/kg) was orally administered to dd strain mice (male animals, 28 to 32g) and 40 µg/kg of PAF (manufactured by Avanti Polar Lipids Co.) was administered via tail veins 1 hour after the administration according to the method of Carlson et al. [Agents and Actions, 21, 379 (1987)]. The mortality rates of compound-treated groups were compared with those of matched control groups, assessed during the same experimental session, by the Fisher's exact probability test. The cases wherein the level of significance (p value) is 0.05 or less are considered to be effective with respect to the inhibition. The above procedure was repeated, using the test compound in a decreasingly small quantity so as to find out the Minimum Effective Dosage (MED) wherein […] be observed between the test and control groups.

[4] = test system: Wistar rats; assay: diuretic effect; format: in vivo; conditions: 25 mg/kg oral, urine collected for 6 hours
Experimental: Wistar rats (male: 150 - 300 g) were starved for 18 hours prior to the administration of the test compounds. […] Urine was collected for 6 hours after the administration. Urine volume was measured and the electrolytes (Na+ and K+) in the urine were determined with a flame photome[…], Hitachi Ltd., Japan). All parameters are expressed as relative values of control.

[5] = concentration to produce 50% relaxation of EWA (1µg/mℓ)-contracted trachea strips of passively sensitized guinea pigs

| SMILES | IC50 [1, 5] [nM] | suppression of increases of the serum creatinine and of urine-nitrogen [2] | pathological examination of removed kidneys: state of kidneys [2] | minimal effective dose [3] [mg/kg] | Increase in K⁺ excretion (%) ([4]; relative to control) | Increase in Na⁺excretion (%) ([4]; relative to control) | Increase in Urine (%) ([4]; relative to control) | Na⁺/K⁺ ([4]; relative value of control (control 1.00)) | IC50 [1] [nM] |
| --- | --- | --- | --- | --- | --- | --- | --- | --- | --- |
| CCCn1c(=O)c2[nH]c(C(C)Cc3ccncc3)nc2n(CCC)c1=O (centres unmarked) [Compound 7, 8-[1-methyl-2-(4-pyridyl)ethyl]-1,3-dipropylxanthine] | 2700 | significantly suppressed | significantly improved | > 100 | – | – | – | – | – |
| CCCn1c(=O)c2[nH]c(C(C)Cc3csc(C)n3)nc2n(CCC)c1=O (centres unmarked) [Compound 8, 8-[1-Methyl-2-(2-methylthiazol-4-yl)ethyl]-1,3-dipropylxanthine] | 880 | significantly suppressed | significantly improved | 100 | 22 | 138 | 82 | 1.95 | – |
| Cn1c(=O)c2[nH]cnc2n(C)c1=O [Theophylline, 1,3-dimethylxanthine, reference compound] | – | – | – | 100 | – | – | – | – | 23000 |
